# Test results reported in US4093574A, “Somatostatin analogs and intermediates thereto” (Eli Lilly and Company, priority 1977, dated 1978).
# Where a SMILES comes first, the peptide text is derived from it. Bridges are numbered along the chain shown (N, C = ends). [ ]: non-standard residue; d: D form.
# What was measured:
# pancreatic secretion = assay: inhibition of pancreatic secretion in dogs with pancreatic and total gastric fistula; type: in vivo
# Experimental: In three dogs having both pancreatic and total gastric fistula, secretion from the pancreas was induced by infusion of […] at 2 units/kg-hr. and cholecystokinin at 0.45 unit/kg-hr., and gastric HCl by infusion of tetragastrin at 0.5 μg/kg-hr. After a steady response was established, each dog received D-Ser^2, D-Trp^8 -somatostatin for one hour at 0.2 μg/kg-hr. The peak inhibitory effect expressed as percent change over control for total protein was -76%. This corresponds to the inhibitory effect obtained by administration of about 0.6 μg/kg-hr. of somatostatin.
# gut motility = assay: action on gut motility in conscious dogs (intralumenal pressure); type: in vivo; settings: intravenous infusion over ten minutes, pylorus, duodenum, antrum
# Experimental: D-Ser^2, D-Trp^8 -somatostatin also was tested for its action on gut motility in conscious dogs. Three dogs having intralumenal catheters placed in the antrum, duodenum, and pylorus were used. Pressure changes in the gut lumen were recorded on a Visicorder using strain gauges and miniature light beam galvanometers. After a steady state control was established, D-Ser^2, D-Trp^8 -somatostatin was infused intravenously over a ten minute period. […] This compared to a minimum effective dose of 0.125-0.25 μg./kg.--10 minutes for somatostatin itself.
# [1] = test system: gastric HCl secretion induced by the C-terminal tetrapeptide of gastrin; assay: in vivo inhibition of gastric acid secretion in dogs with chronic fistula and Heidenhain pouch
# Experimental: D-Ser^2, D-Trp^8 -somatostatin was tested in dogs for its in vivo inhibition of gastric acid secretion. In six dogs with chronic fistula and Heidenhain pouch, gastric HCl secretion was induced by infusion of the C-terminal tetrapeptide of gastrin at 0.5 μg/kg-hr. Each dog served as its own control, receiving on a separate day only the tetrapeptide. On another day, the six dogs received the tetrapeptide, and, after one hour of steady state secretion of HCl, D-Ser^2, D-Trp^8 -somatostatin was infused at 0.20 μg/kg-hr. for one hour. Collection of gastric acid samples was continued for an additional 1.5 hours at 15 minute intervals. The samples were titrated to pH 7 with an automatic titrator. The maximal inhibitory effect of the D-Ser^2, D-Trp^8 -somatostatin was extrapolated against the dose-response curve of somatostatin, and the relative potency of the analog to that of somatostatin is expressed as percent activity. D-Ser^2, D-Trp^8 -somatostatin inhibited steady state acid secretion induced by the C-terminal tetrapeptide of gastrin by 73.5 ± 4.8% standard error of mean. This effect is equivalent to that of 0.545 μg/kg-hr. of somatostatin. Its activity relative to that of somatostatin thus is 273%.
# growth hormone secretion = assay: release of growth hormone in sodium pentobarbital-stimulated rats; type: in vivo, male Spraque-Dawley rats; settings: serum GH at 20 minutes
# Experimental: D-Ser^2, D-Trp^8 -somatostatin also was tested for its activity with respect to the release of growth hormone. The procedure which was employed is carried out using male Spraque-Dawley rats weighing 100-120 grams (Laboratory Supply Company, Indianapolis, Ind.). The test is a modification of the method of P. Brazeau, W. Vale, and R. Guilleman, Endocrinology, 94 184 (1974). In this assay, five groups of eight rats each were employed. Sodium pentobarbital was administered intraperitoneally to all of the rats to stimulate growth hormone secretion. One group served as the control and received only saline. Two of the groups received somatostatin, one at 2 μg./rat, subcutaneously, and the other at 50 μg./rat, subcutaneously. The other two groups received D-Ser^2, D-Trp^8 -somatostatin, one at 2 μg./rat, subcutaneously, and the other at 50 μg./rat, subcutaneously. The serum concentration of growth hormone was measured 20 minutes after simultaneous administration of sodium pentobarbital and test compound. The degree of inhibition of serum growth hormone concentration then was determined with respect to the control group, and the relative activities of D-Ser^2, D-Trp^8 -somatostatin and somatostatin itself were compared. […]
# [2] = test system: glucagon and insulin secretion; assay: in vivo inhibition of glucagon and insulin secretion upon stimulation with L-alanine; parameters: species or system mongrel dogs; settings: fasted dogs, intravenous infusion
# Experimental: D-Ser^2, D-Trp^8 -somatostatin was tested for its in vivo activity in inhibiting glucagon and insulin secretion upon stimulation with L-alanine. Normal mongrel dogs of either sex were fasted overnight. Control blood samples were obtained, and then an intravenous infusion of saline, somatostatin, or D-Ser^2, D-Trp^8 -somatostatin was started. After 30 minutes, L-alanine additionally was administered intravenously for a period of 15 minutes. The infusion of saline, somatostatin, or D-Ser^2, D-Trp^8 -somatostatin was continued for 15 minutes after completion of the L-alanine infusion. From the above it was determined that the minimal effective concentration of D-Ser^2, D-Trp^8 -somatostatin is about 25 nanograms/kg./min. whereas the minimal effective concentration of somatostatin is about 100 nanograms/kg./min.
structure (smiles),measurement,setting,value
"C[C@H](N)C(=O)N[C@H](CO)C(=O)N[C@H]1CSSC[C@@H](C(=O)O)NC(=O)[C@H](CO)NC(=O)[C@H]([C@@H](C)O)NC(=O)[C@H](Cc2ccccc2)NC(=O)[C@H]([C@@H](C)O)NC(=O)[C@H](CCCCN)NC(=O)[C@@H](Cc2c[nH]c3ccccc23)NC(=O)[C@H](Cc2ccccc2)NC(=O)[C@H](Cc2ccccc2)NC(=O)[C@H](CC(N)=O)NC(=O)[C@H](CCCCN)NC1=O [D-Ser^2, D-Trp^8 -somatostatin] (H-A[dS]CKNFF[dW]KTFTSC-OH; disulfide 3-14)","peak inhibitory effect, percent change over control for total protein","pancreatic secretion; 0.2 μg/kg-hr for one hour, pancreatic secretion induced by secretin and cholecystokinin",-76%
same,dose of somatostatin giving corresponding inhibitory effect on pancreatic secretion,pancreatic secretion; analog at 0.2 μg/kg-hr,about 0.6 μg/kg-hr.
same,effect on intralumenal pressure,gut motility,initially increased the intralumenal pressure in the pylorus and then decreased it whereas the pressure in the duodenum and the antrum remained depressed throughout the test
same,dose of somatostatin with equivalent effect on acid secretion,"[1]; analog at 0.20 μg/kg-hr., extrapolated against dose-response curve of somatostatin",0.545 μg/kg-hr.
same,inhibition of steady state acid secretion induced by the C-terminal tetrapeptide of gastrin,"[1]; infused at 0.20 μg/kg-hr. for one hour, ± standard error of mean",73.5 ± 4.8%
same,activity relative to that of somatostatin (gastric acid secretion),[1]; relative potency expressed as percent activity,273%
same,inhibition of growth hormone secretion over control,growth hormone secretion; 2 μg./rat subcutaneously,same effect on growth hormone secretion as somatostatin
same,inhibition of growth hormone secretion over control,growth hormone secretion; 50 μg./rat subcutaneously,66%
same,minimal effective concentration for inhibiting glucagon and insulin secretion,[2],about 25 nanograms/kg./min.
